Patent US8921344B2, “Formulations and uses of 2-hydroxy-5-phenylazobenzoic acid derivatives” (Salix Pharmaceuticals, Inc., priority 2006, dated 2014)

Columns and labels:
clinical = assay: clinical; set-up: species or system human; settings: in vivo; for AUClast / Tmax / AUC(0-t): male, po; for AUClast / Tmax / AUC(0-t) / AUClast ratio Treatment B/A / Cmax ratio Treatment B/A: human; for AUC(0-t): AUClast
Source text: Study periods were separated by a minimum of 4 days. […] The standard pharmacokinetic parameters are shown for both dosing conditions in Table 1.
This delay is indicative of a slower transit of the drug through the GI tract.

[1] = cited from earlier work
[2] = cited from earlier work; remark: listed apart in the source
[3] = compared with 5-ASA; cited from earlier work

## Nc1ccc(C(=O)NCCC(=O)O)cc1 [4-ABA, 4-amino benzoyl-β-alanine]
clinical
  AUClast: 302.0 ± 262.07 ng·h/mL
  Tmax: 24.0 ± 8.51 h
  AUC(0-t): 288 ± 158 ng·h/mL
clinical; Tmax
  Tmax: 12.7 ± 9.46 h
[1]; released in the colon, largely eliminated in the feces
  Absorption of the released carrier component: poorly absorbed

## Nc1ccc(O)c(C(=O)O)c1 [5-ASA, 5-aminosalicylic acid, reference compound]
clinical
  Change of systemic level as measured by AUClast: significant decrease
  Change of systemic level as measured by Cmax: significant decreases
  AUClast: 2096.4 ± 2577.31 ng·h/mL
  AUC(0-t): 2590 ± 1460 ng·h/mL

## O=C(O)CCNC(=O)c1ccc(/N=N/c2ccc(O)c(C(=O)O)c2)cc1 [Balsalazide, reference compound]
clinical
  AUClast ratio Treatment B/A: 1.146
  Cmax ratio Treatment B/A: 0.791
[1]; taken orally
  Part of the prodrug that reaches the colon: 99%

## O=C(O)CCNC(=O)c1ccc(/N=N/c2ccc(O)c(C(=O)O)c2)cc1 [Disodium balsalazide]
[2]
  Water solubility: highly water-soluble

## CC(=O)Nc1ccc(O)c(C(=O)O)c1 [N-Ac-5-ASA, N-acetyl-5-ASA]
clinical
  AUClast ratio Treatment B/A: 0.819
  Cmax ratio Treatment B/A: 0.639
  Change of systemic level as measured by Cmax: significant decreases
[3]
  Anti-inflammatory activity in the colon: lower anti-inflammatory activity
[1]; after oral balsalazide
  Part of the oral dose measured in the blood / systemically absorbed: ~12 % of the oral dose
